# Values of other authors, collected in patent publication US20020051978A1, “Methods and compositions for the identification, assessment, prevention and therapy of human cancers” (priority 2000, published 2002).
# Counter-ions that a name gives are not always drawn. Like-named read-outs stand apart in the source and are kept apart here.
# Test system: 60 cancer cell lines (NCI 60 cancer cell line series)
# Conditions: cited from earlier work
smiles,measurement,setting,value
CC[C@]1(O)C[C@H]2CN(CCc3c([nH]c4ccccc34)[C@@](C(=O)OC)(c3cc4c(cc3OC)N(C=O)[C@H]3[C@@](O)(C(=O)OC)[C@H](OC(C)=O)[C@]5(CC)C=CCN6CC[C@]43[C@@H]65)C2)C1 [Vincristine sulfate],-Log (GI50),Breast BT-549 (CL5013),5.9
same,-Log (GI50),Breast HS-578T CL5006,6.5
same,-Log (GI50),Breast MCF7(I) (CL5001),6.9
same,-Log (GI50),Breast MCF7/ADRr (CL5002),6.1
same,-Log (GI50),Breast MDA-MB-231 CL5005,6.6
same,-Log (GI50),Breast MDA-MB-435 (CL5011),6.7
same,-Log (GI50),Breast MDA-N CL5012,6.6
same,-Log (GI50),Breast T-47D (CL5014),3.8
same,-Log (GI50),CNS SF-268 CL12014,6.8
same,-Log (GI50),CNS SF-295 CL12015,7.0
same,-Log (GI50),CNS SF-539 CL12016,7.0
same,-Log (GI50),CNS SNB-19 (CL12002),6.9
same,-Log (GI50),CNS SNB-75(I) CL12005,6.3
same,-Log (GI50),CNS U251(I) CL12009,6.9
same,-Log (GI50),Colon COLO-250 CL4010,6.9
same,-Log (GI50),Colon HCC-2998 (CL4002),6.9
same,-Log (GI50),Colon HCT-15 CL4015,6.9
same,-Log (GI50),Colon HCT-116 (CL4003),6.9
same,-Log (GI50),Colon HT29(I) CL4001,7.0
same,-Log (GI50),Colon KM12 (CL4017),6.9
same,-Log (GI50),Colon SW-620 (CL4009),7.0
same,-Log (GI50),Leukemia CCRF-CEM(I) (CL7003),7.0
same,-Log (GI50),Leukemia HL-60(I) (CL7008),7.0
same,-Log (GI50),Leukemia K562(I) CL7005,7.0
same,-Log (GI50),Leukemia MOLT-4 (CL7006),6.9
same,-Log (GI50),Leukemia RPMI-8226(I) (CL7010),6.9
same,-Log (GI50),Leukemia SR CL7019,7.0
same,-Log (GI50),Melanoma LOX IMVI CL10001,7.0
same,-Log (GI50),Melanoma M14 (CL10014),6.9
same,-Log (GI50),Melanoma MALME-3M CL10002,6.6
same,-Log (GI50),Melanoma SK-MEL-2 (CL10005),6.9
same,-Log (GI50),Melanoma SK-MEL-5 (CL10007),7.0
same,-Log (GI50),Melanoma SK-MEL-28 (CL10008),6.0
same,-Log (GI50),Melanoma UACC-62 (CL10020),6.9
same,-Log (GI50),Melanoma UACC-257 (CL10021),6.8
same,-Log (GI50),NCSLC NCI-H522 CL1003,6.9
same,-Log (GI50),NSCLC A549/ATCC (CL1004),6.9
same,-Log (GI50),NSCLC EKVX (CL1008),5.7
same,-Log (GI50),NSCLC HOP-62 (CL1026),6.8
same,-Log (GI50),NSCLC HOP-92 (CL1029),6.9
same,-Log (GI50),NSCLC NCI-H23(I) CL1001,7.0
same,-Log (GI50),NSCLC NCI-H226 CL1013,6.9
same,-Log (GI50),NSCLC NCI-H332M CL1017,6.9
same,-Log (GI50),NSCLC NCI-H460 CL1021,7.0
same,-Log (GI50),Ovarian IGROV1 CL6010,7.0
same,-Log (GI50),Ovarian OVCAR-3 CL6001,7.0
same,-Log (GI50),Ovarian OVCAR-4 CL6002,6.3
same,-Log (GI50),Ovarian OVCAR-5 CL6003,4.7
same,-Log (GI50),Ovarian OVCAR-8 CL6005,7.0
same,-Log (GI50),Ovarian SK-OV-3 CL6011,6.6
same,-Log (GI50),Prostate DU-145 CL11003,6.4
same,-Log (GI50),Prostate PC-3(I) CL11001,6.6
same,-Log (GI50),Renal 786-O CL9018,6.9
same,-Log (GI50),Renal A498 CL9013,7.0
same,-Log (GI50),Renal ACHN CL9023,6.8
same,-Log (GI50),Renal CAKI-1 CL9015,6.9
same,-Log (GI50),Renal RXF-393 CL9016,6.9
same,-Log (GI50),Renal SN12C CL9008,6.9
same,-Log (GI50),Renal TK10 CL9024,5.7
same,-Log (GI50),Renal UO-31 CL9004,5.7
